Assay results reported in PMC12736120, “First-in-Human Phase I Clinical Trial of SLC-391, a Novel and Selective AXL Inhibitor, in Patients with Advanced Solid Tumours” (Pharmaceuticals, 2025).

Columns and labels:
advanced solid tumours = test: Preliminary efficacy, disease assessment by RECIST 1.1 / mRECIST; assay type: in vivo, human; settings: for best percent change in target lesion diameter (decrease): one subject
Procedure: Disease assessments were performed according to RECIST 1.1 [20, 21] and included imaging and physical examination as appropriate for disease type and location. Disease assessments were completed at screening (within 30 days of C1D1) and every 3 cycles (±7 days) relative to C1D1 until objective disease progression, study drug discontinuation, or withdrawal of informed consent.

[1] = system: multiple solid tumour and haematological tumour models; parameters: method as in PMID 33786587, doi:10.1158/1538-7445.AM2014-2716, doi:10.1158/1538-7445.AM2014-1746, doi:10.1158/1538-7445.AM2015-5393, doi:10.1158/1538-7445.AM2017-4196; settings: alone or in combination with chemotherapy or immune checkpoint blockade; models including lung cancer, colon cancer, CML, AML; cited from earlier work
TYRO3 = settings: stated in the Introduction, no reference given; read-out: IC50 against TYRO3; cited from earlier work

## Nc1ncc(-c2cnn(C3CCNCC3)c2)cc1-c1nnc(CC2CC2)o1 [SLC-391, 3-(5-[cyclopropylmethyl]-1,3,4-oxadiazol-2-yl)-5-(1-[piperidin-4-yl]-1H-pyrazol-4-yl)-pyridin-2-amine]
Advanced solid tumours; 150 mg BID (3/6)
  rate of stable disease: 50.0%
Advanced solid tumours; NSCLC
  best overall response (BOR) of stable disease: 4/16
Advanced solid tumours; RECIST 1.1 or modified RECIST (mesothelioma)
  subjects with stable disease: 12 of 35 subjects
Advanced solid tumours; all subjects (N = 35), monotherapy
  clinical benefit rate: 34.3%
Advanced solid tumours; appendix adenocarcinoma
  best overall response (BOR) of stable disease: 1/1
Advanced solid tumours; head and neck cancer
  best overall response (BOR) of stable disease: 1/1
Advanced solid tumours; mammary adenocarcinoma
  best overall response (BOR) of stable disease: 1/1
Advanced solid tumours; melanoma
  best overall response (BOR) of stable disease: 1/1
Advanced solid tumours; mesothelioma
  best overall response (BOR) of stable disease: 4/4
Advanced solid tumours; monotherapy
  longest duration of stable disease: 318 days
Advanced solid tumours; monotherapy, all stage IV, pretreated
  patients with stable disease for more than half a year: six
Advanced solid tumours; 50 mg QD, at cycle 7
  best percent change in target lesion diameter (decrease): 26.7%
Advanced solid tumours; 110 mg BID, on day 275
  best percent change in target lesion diameter (decrease): 22.2%
Advanced solid tumours; 150 mg BID, at the end of treatment visit
  best percent change in target lesion diameter (decrease): 8.9%
Advanced solid tumours; 150 mg QD, at cycle 7
  best percent change in target lesion diameter (decrease): 10.7%
[1]
  tumour growth inhibition: results in tumour growth inhibition
TYRO3
  IC50: 42.3 nM
